# Assay results as given in patent US6630504B2, “Phenoxyphenylheterocyclyl derivatives as SSRIs” (Pfizer Inc., priority 2000, dated 2003).
# “And” between values parts separate entries of the source, which are not always exact repeats. Identical values can stand only once. Counter-ions that a name gives are not always drawn.
# Biological target: T1, human serotonin transporter (hSERT) (Homo sapiens, UniProt P31645)
# T1 construct: expressed in transfected cells; host or cells: HEK-293 (stably transfected)
# Assay: inhibition of 3H-serotonin uptake in HEK-293 cells expressing hSERT
# Assay type: cell-based
# Conditions: HEK-293 cells with hSERT, 3H-5HT 50 nM, 5 min incubation; read-out: serotonin re-uptake inhibition (SRI) IC50
# Protocol: A number of compounds were tested for biological activity by their ability to inhibit the uptake of serotonin by human serotonin transporters as follows.
# Human embryonic kidney cells (HEK-293) stably transfected with either the human serotonin transporter (hSERT), noradrenaline transporter (hNET) or dopamine transporter (hDAT) were cultured under standard cell culture techniques (cells were grown at 37° C. and 5% CO2 in DMEM-culture media (supplemented with 10% dialysed foetal calf serum (FCS), 2 mM I-glutamine and 250 μg/ml geneticin)). Cells were harvested for the assay to yield a cell suspension of 750,000 cells/ml.
# All test compounds were dissolved in 100% DMSO and diluted down in assay buffer to give appropriate test concentrations. Assays were carried out in 96-well filter bottom plates. Cells (7500 cells/assay well) were pre-incubated in standard assay buffer containing either test compound, standard inhibitor or compound vehicle (1% DMSO) for 5 minutes. Reactions were started by addition of either ^3H-Serotonin, ^3H-Noradrenaline or ^3H-Dopamine substrates. All reactions were carried out at room temperature in a shaking incubator. Incubation times were 5 minutes for the hSERT and hDAT assays and 15 minutes for the hNET assay. Reactions were terminated by removal of the reaction mixture using a vacuum manifold followed by rapid washing with ice cold assay buffer. The quantity of ^3H-substrate incorporated into the cells was then quantified.
# Assay plates were dried in a microwave oven, scintillation fluid added, and radioactivity measured. Potency of test compounds was quantified as IC50 values (concentration of test compound required to inhibit the specific uptake of radiolabelled substrate into the cells by 50%).
# T1 sequence (P31645 whole entry): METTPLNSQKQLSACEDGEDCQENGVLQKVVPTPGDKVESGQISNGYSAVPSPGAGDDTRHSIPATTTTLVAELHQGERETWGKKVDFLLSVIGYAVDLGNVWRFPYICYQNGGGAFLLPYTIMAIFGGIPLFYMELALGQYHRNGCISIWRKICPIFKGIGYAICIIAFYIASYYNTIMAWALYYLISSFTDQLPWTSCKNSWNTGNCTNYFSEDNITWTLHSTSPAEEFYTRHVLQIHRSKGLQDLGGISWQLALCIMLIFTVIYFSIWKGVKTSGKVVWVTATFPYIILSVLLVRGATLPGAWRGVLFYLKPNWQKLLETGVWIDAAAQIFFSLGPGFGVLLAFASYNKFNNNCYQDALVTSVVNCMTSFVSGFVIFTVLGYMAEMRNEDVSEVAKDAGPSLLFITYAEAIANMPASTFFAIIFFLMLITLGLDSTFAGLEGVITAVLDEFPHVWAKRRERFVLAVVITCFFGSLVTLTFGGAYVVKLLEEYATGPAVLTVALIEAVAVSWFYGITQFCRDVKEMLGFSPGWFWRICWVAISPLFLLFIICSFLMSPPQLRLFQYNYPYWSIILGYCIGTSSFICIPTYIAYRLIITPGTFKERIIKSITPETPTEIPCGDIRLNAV
row,IC50,Compound
1,≤ 0.1 µM and ≤ 0.05 µM and 0.0059 µM,"CNS(=O)(=O)c1ccc(Oc2ccc(SC)cc2)c(C2CCCN2)c1 (single isomer, unassigned) [Example 11, N-methyl-4-[4-(methylsulfanyl)phenoxy]-3-(2-pyrrolidinyl)benzenesulfonamide]"
2,0.013 µM,"CS(=O)(=O)Nc1ccc(Oc2ccc(OC(F)(F)F)cc2)c(C2CCCN2)c1 (single isomer, unassigned) [Example 21]"
3,≤ 0.1 µM and ≤ 0.05 µM and 0.0054 µM,"CSc1ccc(Oc2ccc(S(N)(=O)=O)cc2C2CCCN2)cc1 (single isomer, unassigned; (+)) [Example 7, (+)4-[4-(Methylsulfanyl)phenoxy]-3-(2-pyrrolidinyl)benzenesulfonamide hydrochloride]"
4,≤ 0.05 µM,"CS(=O)(=O)Nc1ccc(Oc2ccc(OC(F)(F)F)cc2)c(C2CCCN2)c1 (single isomer, unassigned; (+)) [Example 22, (+) N-{3-(2-pyrrolidinyl)-4-[4-(trifluoromethoxy)phenoxy]phenyl}-methanesulfonamide]"
